# How the values were obtained:
# [1] = tested on: cartilage pieces of bovine metacarpophalangeal joint; assay: Suppressive action to cartilage destruction: release of sGAG induced by IL-1α from cartilage pieces; type: cell-based; details: 25 μmol/L test substance, 2 h pretreatment, human recombinant IL-1α 3 ng/mL, 4 days at 37° C.; for inhibition at 25 µM: Bos taurus, 96 h, read-out: sGAG Releasing Suppressive Rate (%)
# Procedure: Evaluation of Suppressive Action to Cartilage Destruction [Release of sGAG Induced by Interleukin-1α (IL-1α)]
# (1) Incubation of Cartilage Pieces
# Each four cartilage pieces of bovine metacarpophalangeal joint were placed in each well of a 48-well plate and pretreated for 2 hours with a basal medium [D-MEM (Dulbecco's Modified Eagle Medium) containing 2 mmol/L of glutamine, 25 mmol/L of Hepes, 100 μg/mL of streptomycin, 100 IU/mL of penicillin and 5.6 μg/mL of amphotericin B] containing 25 μmol/L of a test substance. Human recombinant IL-1α (3 ng/mL) was added thereto followed by incubating at 37° C. for 4 days in a CO2 incubator set at 5 vol % of CO2. Culture supernatant and cartilage pieces were recovered and stored by freezing until the measurement for each of them.
# (2) Measurement of the Amount of sGAG and Calculation of the Suppressive Rate for the Release of sGAG
# The recovered cartilage pieces were treated with a papain solution [containing 1 mg/mL of papain, 100 mmol/L of sodium phosphate (pH 6.5), 5 mmol/L of L-cysteine and 5 mmol/L of disodium ethylenediaminetetraacetate (EDTA)] at 65° C. for about 16 hours to solubilize. Amount of sGAG in the resulting extract was measured using an sGAG Alcian Blue Binding Kit (Wieslab AB) which is a quantitative kit to which a Alcian blue staining protocol is applied. sGAG in the culture supernatant after the incubation was measured without subjecting to a papain treatment. Each releasing rate of sGAG was determined by the following formula to calculate the suppressive rate for the release of sGAG. Releasing rate (%) of sGAG={(Total sGAG amount in the culture supernatant)/[(Total sGAG amount in the culture supernatant)+(Total sGAG amount in the cartilage pieces)]}×100 Suppressive rate (%) for release of sGAG={[Releasing rate of sGAG (IL-1α stimulation)−Releasing rate of sGAG (Test substance)]/[Releasing rate of sGAG (IL-1α stimulation)−Releasing rate of sGAG (Non-stimulation)]}×100
# HFLS-OA cells = assay: Suppressive action to TNF-α-induced proliferation of synovial cells (HFLS-OA), BrdU ELISA; type: cell-based; details: 200 μmol/L test substance, human recombinant TNF-α 10 ng/mL, 5 days, BrdU incorporation increase by TNF-α = 100%; for activity at 200 µM: Synovial cell, 120 h, read-out: Synovial Cell Proliferation Rate (%)
# Procedure: Evaluation of Suppressive Action to Cell Proliferation of Synovial Cells (HFLS-OA) Derived from Tissues of Human Osteoarthritis
# (1) Incubation of HFLS-OA Cells
# HFLS-OA cells were sown onto a 96-well plate so as to make them 10^4 cells/well/100 μL in a D-MEM containing 2 vol % of fetal bovine serum (FBS) and incubated for 24 hours. A test substance (200 μmol/L) and human recombinant TNF-α (10 ng/mL) were added thereto followed by incubating for 5 days.
# (2) Measurement of Action to HFLS-OA Cell Proliferation
# A kit [Cell Proliferation ELISA, BrdU (colorimetric) (Roche Diagnostics)] was used and measurement was conducted according to the protocol attached to the kit. HFLS-OA cells were incubated for 3 days and 10 μL of 5-bromo-2′-deoxyuridine (BrdU) dissolved in a phosphate buffered saline (PBS) (100 μmol/L, pH 7.4) was added to each well followed by incubating for 48 hours more. After the culture supernatant was removed from each well, 200 μL/well of an immobilization/denaturation solution was added thereto and the mixture was allowed to stand for 30 minutes whereby immobilization of the cells and denaturation of DNA were conducted. After the immobilization/denaturation solution was completely removed, 100 μL of a peroxidase-labeled anti-BrdU antibody solution was added thereto and the mixture was made to react at room temperature for 90 minutes. After washing with PBS, 100 μL of a substrate liquid (tetramethylbenzidine) was added to each well and the absorbance was measured. A cell proliferation rate upon addition of each test substance was calculated where an increase in incorporation of BrdU upon addition of TNF-α was defined as 100% of cell proliferation rate.
SMILES,inhibition at 25 µM [1],activity at 200 µM (HFLS-OA cells),sGAG Releasing Suppressive Rate (%) [1],Synovial Cell Proliferation Rate (%) (HFLS-OA cells)
"O=c1oc2c(OS(=O)(=O)c3ccccc3)cccc2cc1NS(=O)(=O)c1cccc(F)c1 [Compound 25, 3-[(3-Fluorophenyl)sulfonylamino]-2-oxochromen-8-yl benzenesulfonate]",77%,-40.9%,–,–
"O=c1oc2c(OS(=O)(=O)c3ccc(C(F)(F)F)cc3)cccc2cc1NS(=O)(=O)c1ccc(-c2ccccc2)cc1 [Compound 70, 2-Oxo-3-[(4-phenylphenyl)sulfonylamino]chromen-8-yl 4-(trifluoromethyl)benzenesulfonate]",103%,-39%,–,–
"N#Cc1cccc(S(=O)(=O)Nc2cc3cccc(OS(=O)(=O)c4ccccc4)c3oc2=O)c1 [Compound 22, 3-[(3-Cyanophenyl)sulfonylamino]-2-oxochromen-8-yl benzenesulfonate]",92%,-38.4%,–,–
"O=c1oc2c(OS(=O)(=O)c3cccc([N+](=O)[O-])c3)cccc2cc1NS(=O)(=O)c1cccc([N+](=O)[O-])c1 [Compound 17, 3-[(3-Nitrophenyl)sulfonylamino]-2-oxochromen-8-yl 3-nitrobenzenesulfonate]",156%,-24.9%,–,–
"N#Cc1ccc(S(=O)(=O)Oc2cccc3cc(NS(=O)(=O)c4ccccc4)c(=O)oc23)cc1 [Compound 20, 3-(Benzenesulfonylamino)-2-oxochromen-8-yl 4-cyanobenzenesulfonate]",35%,-42.1%,–,–
"O=c1oc2c(OS(=O)(=O)c3ccc(-c4ccccc4)cc3)cccc2cc1NS(=O)(=O)c1cccc(Br)c1 [Compound 65, 3-[(3-Bromophenyl)sulfonylamino]-2-oxochromen-8-yl 4-phenylbenzenesulfonate]",115%,-45.9%,–,–
"O=c1oc2c(OS(=O)(=O)c3cccc(Br)c3)cccc2cc1NS(=O)(=O)c1ccc(C(F)(F)F)cc1 [Compound 61, 2-Oxo-3-[[4-(trifluoromethyl)phenyl]sulfonylamino]-chromen-8-yl 3-bromobenzenesulfonate]",140%,-40.6%,–,–
"O=c1oc2c(OS(=O)(=O)c3cccc(C(F)(F)F)c3)cccc2cc1NS(=O)(=O)c1cccc(C(F)(F)F)c1 [Compound 33, 2-Oxo-3-[[3-(trifluoromethyl)phenyl]sulfonylamino]-chromen-8-yl 3-(trifluoromethyl)benzenesulfonate]",147%,-40%,–,–
"O=c1oc2c(OS(=O)(=O)c3cccc([N+](=O)[O-])c3)cccc2cc1NS(=O)(=O)c1cccc(Br)c1 [Compound 54, 3-[(3-Bromophenyl)sulfonylamino]-2-oxochromen-8-yl 3-nitrobenzenesulfonate]",136%,-44.4%,–,–
"O=c1oc2c(OS(=O)(=O)c3ccccc3)cccc2cc1NS(=O)(=O)c1ccc(F)c(F)c1 [Compound 26, 3-[(3,4-Difluorophenyl)sulfonylamino]-2-oxochromen-8-yl benzenesulfonate]",97%,-38.4%,–,–
"O=c1oc2c(OS(=O)(=O)c3ccccc3)cccc2cc1NS(=O)(=O)c1cccc(C(F)(F)F)c1 [Compound 28, 2-Oxo-3-[[3-(trifluoromethyl)phenyl]sulfonylamino]-chromen-8-yl benzenesulfonate]",140%,-33.7%,–,–
"N#Cc1ccc(S(=O)(=O)Nc2cc3cccc(OS(=O)(=O)c4ccccc4)c3oc2=O)cc1 [Compound 21, 3-[(4-Cyanophenyl)sulfonylamino]-2-oxochromen-8-yl benzenesulfonate]",69%,-41.2%,–,–
"O=c1oc2c(OS(=O)(=O)c3ccc(-c4ccccc4)cc3)cccc2cc1NS(=O)(=O)c1cccc(C(F)(F)F)c1 [Compound 63, 2-Oxo-3-[[3-(trifluoromethyl)phenyl]sulfonylamino]-chromen-8-yl 4-phenylbenzenesulfonate]",137%,-47.9%,–,–
"O=c1oc2c(OS(=O)(=O)c3ccccc3)cccc2cc1NS(=O)(=O)c1ccc([N+](=O)[O-])cc1 [Compound 23, 3-[(4-Nitrophenyl)sulfonylamino]-2-oxochromen-8-yl benzenesulfonate]",103%,-39%,–,–
"O=c1oc2c(OS(=O)(=O)c3ccc(C(F)(F)F)cc3)cccc2cc1NS(=O)(=O)c1cccc(Br)c1 [Compound 58, 3-[(3-Bromophenyl)sulfonylamino]-2-oxochromen-8-yl 4-(trifluoromethyl)benzenesulfonate]",129%,-42.8%,–,–
"O=c1oc2c(OS(=O)(=O)c3cccc(C(F)(F)F)c3)cccc2cc1NS(=O)(=O)c1ccc([N+](=O)[O-])cc1 [Compound 42, 3-[(4-Nitrophenyl)sulfonylamino]-2-oxochromen-8-yl 3-(trifluoromethyl)benzenesulfonate]",163%,-35.5%,–,–
"O=c1oc2c(OS(=O)(=O)c3ccc(-c4ccccc4)cc3)cccc2cc1NS(=O)(=O)c1ccc(C(F)(F)F)cc1 [Compound 64, 2-Oxo-3-[[4-(trifluoromethyl)phenyl]sulfonylamino]-chromen-8-yl 4-phenylbenzenesulfonate]",136%,-45.9%,–,–
"O=C(O)c1ccc(S(=O)(=O)Oc2cccc3cc(NS(=O)(=O)c4cccc([N+](=O)[O-])c4)c(=O)oc23)cc1 [Compound 49, 4-[3-[(3-Nitrophenyl)sulfonylamino]-2-oxochromen-8-yl]oxysulfonylbenzoic acid]",38%,-36.1%,–,–
"O=c1oc2c(OS(=O)(=O)c3cccc([N+](=O)[O-])c3)cccc2cc1NS(=O)(=O)c1cccc(C(F)(F)F)c1 [Compound 50, 2-Oxo-3-[[3-(trifluoromethyl)phenyl]sulfonylamino]-chromen-8-yl 3-nitrobenzenesulfonate]",163%,-46.4%,–,–
"O=c1oc2c(OS(=O)(=O)c3cccc([N+](=O)[O-])c3)cccc2cc1NS(=O)(=O)c1ccc(C(F)(F)F)cc1 [Compound 67, 2-Oxo-3-[[4-(trifluoromethyl)phenyl]sulfonylamino]-chromen-8-yl 3-nitrobenzenesulfonate]",115%,-38.9%,–,–
"O=c1oc2c(OS(=O)(=O)c3ccccc3)cccc2cc1NS(=O)(=O)c1cccc(Br)c1 [Compound 31, 3-[(3-Bromophenyl)sulfonylamino]-2-oxochromen-8-yl benzenesulfonate]",135%,-37.1%,–,–
"O=c1oc2c(OS(=O)(=O)c3ccc([N+](=O)[O-])cc3)cccc2cc1NS(=O)(=O)c1ccc([N+](=O)[O-])cc1 [Compound 16, 3-[(4-Nitrophenyl)sulfonylamino]-2-oxochromen-8-yl 4-nitrobenzenesulfonate]",112%,-19.9%,–,–
"O=c1oc2c(OS(=O)(=O)c3ccc(C(F)(F)F)cc3)cccc2cc1NS(=O)(=O)c1cccc(C(F)(F)F)c1 [Compound 57, 2-Oxo-3-[[3-(trifluoromethyl)phenyl]sulfonylamino]-chromen-8-yl 4-(trifluoromethyl)benzenesulfonate]",140%,-50%,–,–
O=c1oc2c(OS(=O)(=O)c3cccnc3)cccc2cc1NS(=O)(=O)c1cccc(Br)c1 [Compound 36],–,–,30%,−33.9%
